Data set [1] can be described thus: Cell viability assay (AlamarBlue) in HepAD38 cells. As to conditions: human. A general note: Resazurin is reduced to fluorescent resorufin, in cell work by metabolically active cells.
The target of the next data set is T1, HBV core protein (UniProt P03146).
T1 construct: fused on or other part: BODIPY-FL maleimide label on the C-terminal Cys150
Briefly: Biochemical capsid assembly assay (fluorescence quenching). More on the design: species or system hepatitis B virus. As to conditions: read-out: Assembly Activity (IC50); BODIPY-FL labelled core protein, 300 μM NaCl, read 6 min after start. As to the method:
Biochemical Capsid Assembly Assay
The screening for assembly effector activity was done based on a fluorescence quenching assay published by Zlotnick et al. (2007). The C-terminal truncated core protein containing 149 amino acids of the N-terminal assembly domain fused to a unique cysteine residue at position 150 and was expressed in E. coli using the pET expression system (Merck Chemicals, Darmstadt). Purification of core dimer protein was performed using a sequence of size exclusion chromatography steps. In brief, the cell pellet from 1 L BL21 (DE3) Rosetta2 culture expressing the coding sequence of core protein cloned NdeI/XhoI into expression plasmid pET21b was treated for 1 h on ice with a native lysis buffer (Qproteome Bacterial Protein Prep Kit; Qiagen, Hilden). After a centrifugation step the supernatant was precipitated during 2 h stirring on ice with 0.23 g/ml of solid ammonium sulfate. Following further centrifugation the resulting pellet was resolved in buffer A (100 mM Tris, pH 7.5; 100 mM NaCl; 2 mM DTT) and was subsequently loaded onto a buffer A equilibrated CaptoCore 700 column (GE HealthCare, Frankfurt). The column flow through containing the assembled HBV capsid was dialyzed against buffer N (50 mM NaHCO3 pH 9.6; 5 mM DTT) before urea was added to a final concentration of 3M to dissociate the capsid into core dimers for 1.5 h on ice. The protein solution was then loaded onto a 1 L Sephacryl S300 column. After elution with buffer N core dimer containing fractions were identified by SDS-PAGE and subsequently pooled and dialyzed against 50 mM HEPES pH 7.5; […]. To improve the assembly capacity of the purified core dimers a second round of assembly and disassembly starting with the addition of 5 M NaCl and including the size exclusion chromatography steps described above was performed. From the last chromatography step core dimer containing fractions were pooled and stored in aliquots at concentrations between 1.5 to 2.0 mg/ml at −80° C.
Immediately before labelling the core protein was reduced by adding freshly prepared DTT in a final concentration of 20 mM. After 40 min incubation on ice storage buffer and DTT was removed using a Sephadex G-25 column (GE HealthCare, Frankfurt) and 50 mM HEPES, pH 7.5. For labelling 1.6 mg/ml core protein was incubated at 4° C. and darkness overnight with BODIPY-FL maleimide (Invitrogen, Karlsruhe) in a final concentration of 1 mM. After labelling the free dye was removed by an additional desalting step using a Sephadex G-25 column. Labelled core dimers were stored in aliquots at 4° C. In the dimeric state the fluorescence signal of the labelled core protein is high and is quenched during the assembly of the core dimers to high molecular capsid structures. The screening assay was performed in black 384 well microtiter plates in a total assay volume of 10 μl using 50 mM HEPES pH 7.5 and 1.0 to 2.0 μM labelled core protein. Each screening compound was added in 8 different concentrations using a 0.5 log-unit serial dilution starting at a final concentration of 100 μM, 31.6 μM or 10 μM, In any case the DMSO concentration over the entire microtiter plate was 0.5%. The assembly reaction was started by the injection of NaCl to a final concentration of […] which induces the assembly process to approximately 25% of the maximal quenched signal. 6 min after starting the reaction the fluorescence signal was measured using a Clariostar plate reader (BMG Labtech, Ortenberg) with an excitation of 477 nm and an emission of 525 nm. As 100% and 0% assembly control HEPES buffer containing 2.5 M and 0 M NaCl was used. Experiments were performed thrice in triplicates. EC50 values were calculated by non-linear regression analysis using the Graph Pad Prism 6 software (GraphPad Software, La Jolla, USA).

The subject of another data set is HBV. Briefly: Determination of HBV DNA from the supernatants of HepAD38 cells (anti-HBV activity). The data set is classed as cell-based, hepatitis B virus. The settings on record: Hepatitis B virus, 144 h; HBV DNA in HepAD38 supernatant, day 6, qPCR; read-out: Cell Activity (EC50). The method in brief:
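HepAD38 cells, tetracycline withdrawn to induce HBV, treated with serial half-log compound dilutions; on day 6 HBV DNA purified from filtered supernatant and quantified by real-time PCR against HBV plasmid standards; EC50 from relative copy numbers by non-linear regression, three experiments in triplicate.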

T1 sequence (P03146 whole entry, looked up, the tested form may be a part): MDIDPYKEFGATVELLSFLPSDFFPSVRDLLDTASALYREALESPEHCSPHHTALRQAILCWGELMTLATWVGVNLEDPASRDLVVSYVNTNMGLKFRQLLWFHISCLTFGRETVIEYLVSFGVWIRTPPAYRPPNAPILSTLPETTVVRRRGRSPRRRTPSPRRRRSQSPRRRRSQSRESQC

`CCc1cccc2[nH]c(C(=O)N3CCc4n[nH]c(-c5cscn5)c4C3)cc12` [Example 18, 4-ethyl-2-[3-(1,3-thiazol-4-yl)-2H,4H,5H,6H,7H-pyrazolo[4,3-c]pyridine-5-carbonyl]-1H-indole]: the midpoint of cytotoxicity in data set [1], the CC50 at 6 days, lay at 7.3 µM. Further, at HBV core protein, the IC50 (commonly the concentration at which inhibition is half-maximal) was less than 5 µM. In the data set with HBV, the EC50 (usually the concentration at which the effect is half-maximal) was less than 1 µM.
For `O=C(c1cc2c(Cl)cccc2[nH]1)N1CCc2n[nH]c(-c3cscn3)c2C1` [Example 19, 4-chloro-2-[3-(1,3-thiazol-4-yl)-2H,4H,5H,6H,7H-pyrazolo[4,3-c]pyridine-5-carbonyl]-1H-indole] the same measures were greater than 10 µM, less than 5 µM and less than 1 µM.
For `O=C(c1cc2c(F)cc(F)cc2[nH]1)N1CCc2n[nH]c(-c3cscn3)c2C1` [Example 20, 4,6-difluoro-2-[3-(1,3-thiazol-4-yl)-2H,4H,5H,6H,7H-pyrazolo[4,3-c]pyridine-5-carbonyl]-1H-indole] the same measures were greater than 10 µM, less than 5 µM and less than 1 µM.
In the case of `O=C(c1cc2c(C(F)(F)F)cccc2[nH]1)N1CCc2n[nH]c(-c3cscn3)c2C1` [Example 21, 2-[3-(1,3-thiazol-4-yl)-2H,4H,5H,6H,7H-pyrazolo[4,3-c]pyridine-5-carbonyl]-4-(trifluoromethyl)-1H-indole], the CC50 – broadly, the concentration giving 50% cytotoxicity – at 6 days in data set [1] was greater than 10 µM. In addition, the half-inhibitory concentration (IC50) at HBV core protein is less than 100 µM. Also, in the data set on HBV, the half-maximal effective concentration (EC50) is less than 1 µM.
For `O=C(c1cc2c(F)c(F)ccc2[nH]1)N1CCc2n[nH]c(-c3cscn3)c2C1` [Example 22, 4,5-difluoro-2-[3-(1,3-thiazol-4-yl)-2H,4H,5H,6H,7H-pyrazolo[4,3-c]pyridine-5-carbonyl]-1H-indole], in that order: greater than 10 µM, less than 5 µM and less than 1 µM.
For `Cc1cccc2[nH]c(C(=O)N3CCc4n[nH]c(-c5cscn5)c4C3)cc12` [Example 23, 4-methyl-2-[3-(1,3-thiazol-4-yl)-2H,4H,5H,6H,7H-pyrazolo[4,3-c]pyridine-5-carbonyl]-1H-indole], in that order: greater than 10 µM, less than 5 µM and less than 1 µM.
For `Cc1cc(F)cc2[nH]c(C(=O)N3CCc4n[nH]c(-c5cscn5)c4C3)cc12` [Example 26, 6-fluoro-4-methyl-2-[3-(1,3-thiazol-4-yl)-2H,4H,5H,6H,7H-pyrazolo[4,3-c]pyridine-5-carbonyl]-1H-indole], in data set [1], the CC50 at 6 days was greater than 10 µM. At HBV core protein, the IC50 is less than 5 µM. Also, in the data set on HBV, the EC50 is less than 1 µM.
Regarding `CN(CCO)C(=O)c1n[nH]c2c1CN(C(=O)c1cc3c(C(C)(F)F)cc(F)cc3[nH]1)CC2` [Example 27, 5-[4-(1,1-difluoroethyl)-6-fluoro-1H-indole-2-carbonyl]-N-(2-hydroxyethyl)-N-methyl-1H,4H,5H,6H,7H-pyrazolo[4,3-c]pyridine-3-carboxamide], the CC50 at 6 days in data set [1] is greater than 10 µM. At HBV core protein, the IC50 is less than 5 µM. Further, the EC50 in the data set on HBV was less than 1 µM.
For the compound `CN(CCO)C(=O)c1n[nH]c2c1CN(C(=O)c1cc3c(F)cc(F)cc3[nH]1)CC2` [Example 28, 5-(4,6-difluoro-1H-indole-2-carbonyl)-N-(2-hydroxyethyl)-N-methyl-1H,4H,5H,6H,7H-pyrazolo[4,3-c]pyridine-3-carboxamide], in data set [1], the CC50 at 6 days is greater than 10 µM. Also, on HBV core protein, the IC50 was less than 5 µM. In addition, in the data set with HBV, the EC50 was less than 1 µM.
For `CN(CCO)C(=O)c1n[nH]c2c1CN(C(=O)c1cc3ccc(Br)cc3[nH]1)CC2` [Example 29, 5-(6-bromo-1H-indole-2-carbonyl)-N-(2-hydroxyethyl)-N-methyl-1H,4H,5H,6H,7H-pyrazolo[4,3-c]pyridine-3-carboxamide] the same measures were greater than 10 µM, less than 5 µM and less than 1 µM.
Consider `CN(CCO)C(=O)c1n[nH]c2c1CN(C(=O)c1cc3c(Br)cccc3[nH]1)CC2` [Example 30, 5-(4-bromo-1H-indole-2-carbonyl)-N-(2-hydroxyethyl)-N-methyl-1H,4H,5H,6H,7H-pyrazolo[4,3-c]pyridine-3-carboxamide], for which the cytotoxic concentration (CC50) at 6 days in data set [1] was greater than 10 µM. Besides, at HBV core protein, the IC50 was less than 5 µM. In addition, the concentration for a half-maximal effect (EC50) with HBV is less than 1 µM.
For `CNC(C)(C)COC(=O)c1n[nH]c2c1CN(C(=O)c1cc3ccccc3[nH]1)CC2` [Example 31, 2-methyl-2-(methylamino)propyl 5-(1H-indole-2-carbonyl)-1H,4H,5H,6H,7H-pyrazolo[4,3-c]pyridine-3-carboxylate], in that order: greater than 100 µM, 5 to 10 µM and 1 to 25 µM.
For `CNC1(COC(=O)c2n[nH]c3c2CN(C(=O)c2cc4ccccc4[nH]2)CC3)CC1` [Example 32, [1-(methylamino)cyclopropyl]methyl 5-(1H-indole-2-carbonyl)-1H,4H,5H,6H,7H-pyrazolo[4,3-c]pyridine-3-carboxylate], in that order: greater than 100 µM, less than 5 µM and less than 1 µM.
For `CN(C(=O)c1n[nH]c2c1CN(C(=O)c1cc3ccccc3[nH]1)CC2)C1(CO)CC1` [Example 33, N-[1-(hydroxymethyl)cyclopropyl]-5-(1H-indole-2-carbonyl)-N-methyl-1H,4H,5H,6H,7H-pyrazolo[4,3-c]pyridine-3-carboxamide] the same measures were greater than 10 µM, less than 5 µM and less than 1 µM.
As for `CC1(O)CN(C(=O)c2n[nH]c3c2CN(C(=O)c2cc4ccccc4[nH]2)CC3)C1` [Example 34, 1-[5-(1H-indole-2-carbonyl)-1H,4H,5H,6H,7H-pyrazolo[4,3-c]pyridine-3-carbonyl]-3-methylazetidin-3-ol], the CC50 at 6 days in data set [1] is greater than 15 µM. The concentration for half-maximal inhibition (IC50) on HBV core protein is less than 100 µM. For the same compound, the EC50 in the data set on HBV is less than 1 µM.
For `CC1c2c(-c3cscn3)n[nH]c2CCN1C(=O)c1cc2ccccc2[nH]1` (stereo not drawn) [Example 36, 2-[4-methyl-3-(1,3-thiazol-4-yl)-1H,4H,5H,6H,7H-pyrazolo[4,3-c]pyridine-5-carbonyl]-1H-indole] the same measures were 88 µM, 5 to 10 µM and less than 1 µM.
For `CC1Cc2[nH]nc(-c3cscn3)c2CN1C(=O)c1cc2c(Cl)cc(F)cc2[nH]1` (stereo not drawn) [Example 37, 4-chloro-6-fluoro-2-[6-methyl-3-(1,3-thiazol-4-yl)-1H,4H,5H,6H,7H-pyrazolo[4,3-c]pyridine-5-carbonyl]-1H-indole], in that order: greater than 32 µM, 5 to 10 µM and less than 1 µM.
`CC1Cc2[nH]nc(-c3cscn3)c2CN1C(=O)c1cc2ccccc2[nH]1` (stereo not drawn) [Example 38, 2-[6-methyl-3-(1,3-thiazol-4-yl)-1H,4H,5H,6H,7H-pyrazolo[4,3-c]pyridine-5-carbonyl]-1H-indole] came in with a CC50 at 6 days in data set [1] of 100 µM. Moreover, the IC50 on HBV core protein is less than 5 µM. Also, the EC50 in the data set on HBV was less than 1 µM.
As to `CC(C)(O)C1CN(C(=O)c2n[nH]c3c2CN(C(=O)c2cc4ccccc4[nH]2)CC3)C1` [Example 39, 2-{1-[5-(1H-indole-2-carbonyl)-1H,4H,5H,6H,7H-pyrazolo[4,3-c]pyridine-3-carbonyl]azetidin-3-yl}propan-2-ol], the CC50 at 6 days in data set [1] was greater than 32 µM. In addition, on HBV core protein, the IC50 was less than 100 µM. Moreover, the EC50 in the data set on HBV lay in the range of 1 to 25 µM.
